Patent publication US10738024B2, “Compounds for treatment of angiogenesis-mediated diseases” (Indiana University Research and Technology Corporation, priority 2013, dated 2020)
“Also recorded” adds a separate entry of the source.

Columns and labels:
HRECs [1] = test: Matrigel tube formation by HRECs; format: cell-based, human; details: for tube formation ability of HRECs: compared to DMSO control, concentration not given
Experimental: Matrigel assays were performed as described in Ponce (2001) In vitro matrigel angiogenesis assays, Methods Mol Med 46: 205-209, with slight modifications for the use of HRECs. Briefly, HRECs were starved overnight at 0.5% FBS in EBM-2 and plated on a 96-well plate at a density of 7,500 cells/well over 50 μL of Matrigel high concentration basement membrane. SH-11052 (2) was added at the indicated concentrations in EBM-2+1% FBS. Cells were observed every 2 hours by bright field microscopy at 40× magnification for tube formation. Closed units (polygons) were manually counted at 8 hours post plating and numbers normalized to the DMSO control. Assays were performed in triplicate.
For determining the effect of analog compound SH-11037 (6c) on tube formation, HRECs were plated in 100 μL of EGM-2 containing SH-11037 (6c) (0 nM, 50 nM and 200 nM) dissolved in DMSO in 96-well MatriGel-coated plates for one hour. Wells were photographed after 8 hours and number of polygons (enclosed shapes bordered by tubes) manually counted and expressed as a percentage of the DMSO-only control.

HRECs [2] = test: Migration of HRECs; format: cell-based, human
p21, CDK1, IL-6 and IL-8 = test: Gene expression effects on p21, CDK1, IL-6 and IL-8 (data not shown); format: cell-based; details: compared with cremastranone
IκB-α = test: TNF-α-mediated degradation of IκB-α in HRECs (immunoblot); format: cell-based, human; details: 20 ng/ml TNF-α, 20 minutes
Experimental: (§1) HRECs were seeded at 10^5 cells/well in a 6-well plate and after 24 hours of incubation at 37° C., cells were serum starved in 0.1% serum-EBM-2 for 8 hours. Cells were then treated with the indicated concentrations of SH-11052 (2) for one hour before the addition of 20 ng/ml of TNF-α. After 20 minutes, cells were lysed in NP-40 Lysis buffer containing 25 mM HEPES pH 7.4, 1% NP-40, 150 mM NaCl, 10% glycerol, 1 mM sodium orthovanadate, 10 mM sodium fluoride, 1 mM sodium pyrophosphate, 1 mM PMSF, 2.5 mg/ml aprotinin, 1 mM pepstatin, and 1 mM leupeptin. Equal amounts of proteins (80 μg), as measured by a Bradford assay, were run on 10% SDS-PAGE, transferred to PVDF membrane, blocked with 5% BSA in TBS-0.05% Tween-20 and immunoblotted with the indicated primary antibodies (1:1000 in 1% BSA in TBS-0.05% Tween-20) overnight at 4° C. After three washes in TBS-0.05% Tween-20, HRP-conjugated secondary antibodies (1:5000 in 5% BSA in TBS-0.05% Tween-20) were applied for one hour at room temperature. After three washes, the protein bands were detected and densitized using ECL Prime western blot detection reagent (GE Life Sciences, Piscataway, N.J., USA) and an XRS gel documentation system running Quantity One software (Bio-Rad). Target protein band intensity was normalized to housekeeping gene α-tubulin. […]

p38 MAPK = test: Phosphorylation of p38 MAPK in HRECs after TNF-α (immunoblot); format: cell-based, human
Experimental: as §1

IL8 = test: qRT-PCR of NF-κB target gene IL8 in TNF-α challenged cells; format: cell-based, human; details: 10 ng/ml TNF-α for 24 hours; listed as SH-11052 (2)
Experimental: (§2) Similarly, the mRNA expression of the pro-inflammatory molecules IL8, PTGS2 (COX2) and CCL2 (MCP-1), inducible by NF-κB, were analyzed in the presence of SH-11052 (2). Cells (10^5 per well) were seeded in a 6-well plate and incubated for 24 hours at 37° C. and 5% CO2. The cells were then starved in 0.1% serum-EBM-2 for 12 hours followed by incubation for an hour in the presence of different concentrations of SH-11052 (2). The cells were then challenged for 24 hours with 10 ng/ml TNF-α. Following incubation, cells were lysed and RNA was isolated using Trizol reagent (Life Technologies). cDNA was prepared from 80 ng total RNA using random primers and M-MuLV Reverse Transcriptase (New England Biolabs, Ipswich, Mass., USA). RT-PCR reactions were set up using the TaqMan Fast Gene Expression Assay Kit according to the manufacturer's instructions. FAM-labeled TaqMan probes for PTGS2 (Hs00153133_m1), CCL2 (Hs00234140_m1), IL8 (Hs00174103_m1), and control, TBP (Hs99999910_m1), genes were used to monitor the expression levels of these genes. The qRT-PCR plate was read in a ViiATM 7 qPCR system (Life Technologies) and the data were analyzed using the ΔΔCt method. The expression levels of genes were normalized to TBP gene expression and calibrated to the DMSO-treated, unstimulated sample.

CCL2 (MCP-1) = test: qRT-PCR of NF-κB target gene CCL2 in TNF-α challenged cells; format: cell-based, human; details: 10 ng/ml TNF-α for 24 hours; listed as SH-11052 (2)
Experimental: as §2

VEGFR2 = test: Phosphorylation of VEGFR2 in HRECs upon VEGF stimulation (immunoblot); format: cell-based, human; details: 100 ng/ml VEGF, 20 minutes
Experimental: as §1, with “of 100” for “of 20”, “ng/ml VEGF.” for “ng/ml of TNF-α.”

Akt = test: Phosphorylation of Akt in HRECs upon VEGF stimulation (immunoblot); format: cell-based, human; details: 100 ng/ml VEGF, 20 minutes
Experimental: as §1, with “of 100” for “of 20”, “ng/ml VEGF.” for “ng/ml of TNF-α.”

Compound | block of HREC tube formation (HRECs [1]; 500 nM, polygons vs DMSO-only control) [%] | tube formation ability of HRECs (HRECs [1]) | migration of HRECs (HRECs [2]) | gene expression effects on p21, CDK1, IL-6 and IL-8 (p21, CDK1, IL-6 and IL-8) | tube formation ability of HRECs at 140 μM (HRECs [1]; 140 μM, 8 hours) | tube formation ability of HRECs (HRECs [1]; listed as SH-11052 (2)) | tube formation of HRECs at the GI50 value (HRECs [1]; compound at its GI50 value, 8 hours) | TNF-α-mediated degradation of IκB-α (IκB-α) | phosphorylation of p38 MAPK (p38 MAPK) | mRNA expression of IL8 (IL8) | mRNA expression of CCL2 (MCP-1) (CCL2 (MCP-1)) | phosphorylation of VEGFR2 (VEGFR2) | activation (phosphorylation) of Akt (Akt)
COc1ccc(CC2COc3cc(OC)c(OC)c(OC)c3C2=O)cc1OC(=O)[C@H](Cc1ccccc1)NC(=O)OC(C)(C)C (stereo partly drawn) [Compound 6c, (2S)-2-methoxy-5-((5,6,7-trimethoxy-4-oxochroman-3-yl)methyl)phenyl 2-((tert-butoxycarbonyl)amino)-3-phenylpropanoate] | 88 | inhibited | blocked migration | did not share cremastranone's gene expression effects |  |  |  |  |  |  |  |  | 
COc1ccc(CC2COc3cc(OC)c(O)c(O)c3C2=O)cc1O (single isomer, unassigned) [Compound 2] |  |  |  |  | completely abolished | inhibited tube formation; also recorded: significant reduction in their tube formation ability | significant reduction in tube formation | significantly decreased in a dose dependent manner | inhibited phosphorylation | decreased the expression | decreased the expression | did not inhibit phosphorylation | inhibited activation
